Melting point data for one compound are collected here from US7919506B2, “Dibenzyl amine compounds and derivatives” (Pfizer Inc., priority 2006, dated 2011).

Each structure is given as a SMILES string.

For `COC1(c2ccc(C(F)(F)F)cc2CN(Cc2cc(C(F)(F)F)cc(C(F)(F)F)c2)c2nnn(C)n2)CCCCCC1` [Example 52, N-(2-(1-methoxycycloheptyl)-5-(trifluoromethyl)benzyl)-N-(3,5-bis(trifluoromethyl)benzyl)-2-methyl-2H-tetrazol-5-amine], the melting point lay in the range of 103 to 104 °C.
